According to patent publication US20080075796A1, “Compositions and Methods for Controlling Insects” (TyraTech, Inc., priority 2003, published 2008):

Columns and labels:
Or83b receptor = molecular target: T1, Or83b receptor (Drosophila melanogaster, UniProt Q9VNB5); test: Saturation binding of ^3H-tyramine to membranes from Schneider cells expressing Or83b receptor
T1 construct: His (from vector pAc5.1/V5-His B) (C); expressed in transfected cells
T1 sequence (Q9VNB5 1-486): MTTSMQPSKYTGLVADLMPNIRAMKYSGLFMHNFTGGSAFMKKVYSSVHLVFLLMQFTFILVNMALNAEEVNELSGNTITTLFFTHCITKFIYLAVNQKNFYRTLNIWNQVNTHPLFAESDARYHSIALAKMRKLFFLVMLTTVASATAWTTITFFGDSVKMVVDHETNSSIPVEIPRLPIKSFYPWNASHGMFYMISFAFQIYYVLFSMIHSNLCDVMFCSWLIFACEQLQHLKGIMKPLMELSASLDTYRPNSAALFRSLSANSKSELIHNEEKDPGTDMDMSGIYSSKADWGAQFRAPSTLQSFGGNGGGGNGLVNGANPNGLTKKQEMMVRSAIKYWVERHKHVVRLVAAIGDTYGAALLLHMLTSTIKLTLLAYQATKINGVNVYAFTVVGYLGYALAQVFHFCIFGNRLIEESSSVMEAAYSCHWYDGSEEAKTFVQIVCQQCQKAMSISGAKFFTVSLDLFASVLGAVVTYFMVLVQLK
Experimental: To address whether Or83b receptor and Or43a receptor contain a specific binding site for tyramine, membranes expressing Or83b receptor or Or43a receptor are prepared from cells expressing either receptor, as described above, and used for competitive binding with ^3H-tyramine. The binding assay protocol is exactly as described for cells expressing TyrR, as described above.

tyramine receptor (TyrR) = molecular target: T2, tyramine receptor (TyrR) (Drosophila melanogaster, UniProt P22270); test: Saturation binding of ^3H-tyramine to membranes from Schneider cells expressing tyramine receptor
T2 sequence (P22270 27-601): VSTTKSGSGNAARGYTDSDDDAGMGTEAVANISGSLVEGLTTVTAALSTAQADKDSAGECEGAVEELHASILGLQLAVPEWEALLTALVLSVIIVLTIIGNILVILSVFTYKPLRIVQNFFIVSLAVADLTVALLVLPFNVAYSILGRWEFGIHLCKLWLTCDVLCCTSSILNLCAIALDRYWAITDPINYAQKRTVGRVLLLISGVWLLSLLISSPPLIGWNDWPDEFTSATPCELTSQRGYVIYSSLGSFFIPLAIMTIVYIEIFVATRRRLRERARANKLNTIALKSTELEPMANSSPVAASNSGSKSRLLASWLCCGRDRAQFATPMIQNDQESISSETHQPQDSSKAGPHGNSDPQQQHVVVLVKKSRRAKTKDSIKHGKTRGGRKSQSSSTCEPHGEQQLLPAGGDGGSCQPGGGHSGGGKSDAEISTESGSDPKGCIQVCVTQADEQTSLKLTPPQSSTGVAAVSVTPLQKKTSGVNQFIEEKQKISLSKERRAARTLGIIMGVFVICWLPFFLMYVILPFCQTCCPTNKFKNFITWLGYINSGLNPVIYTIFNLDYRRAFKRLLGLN
Experimental: A preliminary study to determine the optimum concentration of membrane protein for receptor binding activity is performed. […] After about 1 hr incubation at room temperature, reactions are terminated by filtration through GF/C filters (VWR), which have been previously soaked in about 0.3% polyethyleneimine (PEI). The filters are washed one time with about 4 ml ice cold Iris buffer and air dried before the retained radioactivity is measured using LSC. Binding data is analyzed by curve fitting (GraphPad software, Prism).
Receptor binding reactions are incubated for about 1 hr at room temperature (RT) in restricted light. Reactions are terminated by filtration through OF/C filters (VWR), which have been previously soaked in about 0.3% polyethyleneimine (PEI). The filters are washed one time with about 4 ml ice cold Tris buffer and air dried before retained radioactivity is measured using LSC. Binding data is analyzed by curve fitting (GraphPad software, Prism).

## NCCc1ccc(O)cc1 [tyramine]
Or83b receptor
  Kd: ~96.9 nM
  Ki: 96.9 nM
Tyramine receptor (TyrR)
  Ki: 1.26 nM
Tyramine receptor (TyrR); saturation binding, membranes expressing TyrR, listed as Tyramine
  Bmax: 0.679 pmol/mg protein
